Results reported in paper PMC10156683, “Male-selective effects of oxytocin agonism on alcohol intake: behavioral assessment in socially housed prairie voles and involvement of RAGE” (Neuropsychopharmacology, 2022).
Structures can show the parent of a compound that is named as a salt.

Assays:
[1] = in vivo; parameters: species or system prairie vole (Microtus ochrogaster); conditions: for tissue level at time at 10 min: female
Description: Following confirmation of the presence of RAGE mRNA and protein in prairie vole brain using RT-PCR and immunohistochemistry as described in the Supplementary Material, we tested whether IN or IP administered OXT penetrates into the brain and whether the RAGE protein is involved in this transport. Adult female and male prairie voles were assigned to control or treatment groups. Animals in the treatment group received the high affinity, BBB-permeant RAGE antagonist FPS ZM1 and control animals received saline 30 min prior to administration of oxytocin-(leucine-5,5,5-d3, glycine-2,2-d2) trifluoroacetate salt (d5 OXT) in saline to all animals. After 10 min, animals were deeply anaesthetized under 4% isoflurane and perfused with heparinized saline. […] Brains were extracted and snap-frozen in isopentane, then stored at −80 °C until prepared for analysis via LC-MS/MS (Supplementary Fig. S2).
OXT acetate salt (Bachem, Torrence, CA, USA) was dissolved in normal saline to doses of 5.0 mg/kg and 10.0 mg/kg (25 µl, IN). LIT-001 was synthesized in the laboratory of Dr. Marcel Hibert. […]
(§1) Alcohol and water intake were calculated for each animal as liquid consumed in grams (adjusted per density of 5% (v/v) ethanol and water) over body weight in kilograms. Alcohol and water drink size were determined by the volume of liquid consumed (ml) per consumption event. Consumptive visits were defined as channel entries during which a consumption event was recorded. […] Cumulative measures were analyzed at hourly intervals for 24 h post-treatment. […]
Adult female and male prairie voles (75- 207d) were assigned to control (n =28; females = 14) or treatment (n = 29; females = 15) groups pseudo-randomly to ensure genetic diversity across groups. Whole brain tissue samples (~650 mg) were homogenized, subjected to protein precipitation and solid-phase extraction, and analyzed for concentrations (pg/mg) of exogenous oxytocin-(leucine-5,5,5-d3, glycine-2,2-d2) trifluoroacetate salt (d5 OXT) using a Shimadzu Nexera-LCMS-8060 (Shimadzu, Kyoto, Japan) liquid chromatograph-triple quadrupole mass spectrometer. […]

[2] = tested on: RAGE; test: Involvement of RAGE in brain penetration of d5 OXT: pre-treatment with RAGE antagonist FPS ZM1; assay type: in vivo, prairie vole (Microtus ochrogaster)
Description: Following confirmation of the presence of RAGE mRNA and protein in prairie vole brain using RT-PCR and immunohistochemistry as described in the Supplementary Material, we tested whether IN or IP administered OXT penetrates into the brain and whether the RAGE protein is involved in this transport. Adult female and male prairie voles were assigned to control or treatment groups. Animals in the treatment group received the high affinity, BBB-permeant RAGE antagonist FPS ZM1 and control animals received saline 30 min prior to administration of oxytocin-(leucine-5,5,5-d3, glycine-2,2-d2) trifluoroacetate salt (d5 OXT) in saline to all animals. […]
as §1
In 5 (1 control female, 2 control males, 1 pre-treated female and 1 pre-treated male) out of 57 cases levels were above or below 2 standard deviations from the mean and thus removed from analysis. In cases when no d5 OXT was detected, the concentration was entered as zero (17 total). […]

[3] = tested on: prairie voles; test: Continuous-access two-bottle choice (CA-2BC) alcohol drinking in socially housed prairie voles, HM2 cages, mixed-cage design; assay type: in vivo, prairie vole (Microtus ochrogaster)
Method: For experiments examining the effects of pharmacologically targeting the OXT system on alcohol (and water) consumption, adult female and male prairie voles were given ad libitum access to alcohol in a CA-2BC design for 6 days. […] Fluid consumption was measured before and after treatment (IN OXT or IP LIT-001, or vehicle) using the Herdsman-2 (HM2; MBrose Faaborg, Denmark) cage system. The HM2 system is designed to allow socially housed animals unrestrained access to and interaction with other animals in the cage, while accounting for precise, individualized measures of fluid intake through the combined use of balances and radiofrequency identification (RFID) implants. This cage system has been previously utilized to assess potential pharmacotherapies for AUD in rodents. Further details are provided in the Supplementary Material (Supplementary Fig. S1). Consistent with previous studies, a mixed-cage design (treated and control animals in the same cage) was used.
OXT acetate salt (Bachem, Torrence, CA, USA) was dissolved in normal saline to doses of 5.0 mg/kg and 10.0 mg/kg (25 µl, IN). LIT-001 was synthesized in the laboratory of Dr. Marcel Hibert. It was dissolved in 5% dimethyl sulfoxide in saline and administered at a dose of 10 mg/kg (IP). FPS ZM1 (1 mg/kg, IP; Tocris, Minneapolis, MN, USA) and d5 OXT (3 µg/25 µl, IN or 12 µg/0.1 ml, IP; Sigma-Aldrich, St. Louis, MO, USA) were dissolved in saline. The d5 OXT dose was based on previous assessments of OXT penetrance.
Alcohol and water intake were calculated for each animal as liquid consumed in grams (adjusted per density of 5% (v/v) ethanol and water) over body weight in kilograms. Alcohol and water drink size were determined by the volume of liquid consumed (ml) per consumption event. Consumptive visits were defined as channel entries during which a consumption event was recorded. […] Cumulative measures were analyzed at hourly intervals for 24 h post-treatment. Concentrations of d5 OXT (pg/mg of tissue) were obtained through LC-MS/MS analysis on a Shimadzu Nexera-LCMS-8060 instrument using a previously established method. Data analysis was performed in IBM SPSS Statistics 27 and visualization was performed in Prism 9.3.1. The distribution of many of these measures was not normal. Therefore, non-parametric statistics were applied, including Kruskal–Wallis test and post hoc analyses with Mann–Whitney U-test. While Results below only include p values, detailed statistical analyses are presented in Supplementary Material Table S1.
The Herdsman-2 (HM2) system was used in the experiments measuring alcohol consumption. The HM2 cage system consists of Techniplast 1500U Eurostandard type IV S (48 x 37.5 x 21cm) rodent housing cages equipped with two (11cm) channels (front and back) on one side and stairs specially designed to accommodate prairie voles. Each channel leads to a bottle (one water, one 5% ethanol in water, v/v) below which is a precision balance with a catch tray for spillage- which is automatically deducted from consumption calculations. Breakage of the photobeam at the entrance of the channel triggers the RFID reader to register the animal. A consumption event is initiated when the animal touches the drinking spout and a change of weight of at least 0.02 g is detected; the starting weight is saved and ending weight is registered only after the system receives a stable reading for 5 s. A consumption event is ended 30s after the last touch of the drinking spout, regardless of whether the animal remains in the channel. The system collects a number of measures, including: weight of liquid consumed, number of channel entries and consumptive vs. non-nutritive visits (whether liquid is consumed or not). […]

[4] = cited from earlier work
Description: Determining the behavioral and molecular effects of OXT on alcohol consumption is important for translational application and optimization of treatment efficacy. […] While a statisti ...

[5] = tested on: prairie voles; conditions: both sexes, previous prairie vole study; cited from earlier work
Description: Importantly, RAGE immunoreactivity was detected in the choroid plexus, hypothalamus and hippocampus, confirming expression in possible locations of central penetration. […] Studies in mice noted that the IN route of administration can result in hi ...

[6] = tested on: AVPR1a; conditions: cited from earlier work
Description: Determining the behavioral and molecular effects of OXT on alcohol consumption is important for translational application and optimization of treatment efficacy. […] Given OXT’s low brain-penetrance and potentially non-specific effects on the related vasopressin receptor AVPR1a, development of an OXTR receptor agonist with a more desirable pharmacokinetic profile could increase the tran ...

CC[C@H](C)[C@@H]1NC(=O)[C@H](Cc2ccc(O)cc2)NC(=O)[C@@H](N)CSSC[C@@H](C(=O)N2CCC[C@H]2C(=O)N[C@@H](CC(C)C)C(=O)NCC(N)=O)NC(=O)[C@H](CC(N)=O)NC(=O)[C@H](CCC(N)=O)NC1=O [d5 OXT, oxytocin-(leucine-5,5,5-d3, glycine-2,2-d2) trifluoroacetate salt]
tissue level at time at 10 min ([1]; 3 ug): 0.006 ng/g | tissue level at time at 10 min ([1]; ip, 12 ug): 0.05 ng/g | Presence of d5 OXT in brain (in words) ([1]; ip): detected

O=C(c1ccc(Cl)cc1)N(Cc1ccccc1)C1CCCCC1 [FPS ZM1]
Effect of antagonist pre-treatment on brain d5 OXT levels after IP d5 OXT (in words) ([2]; female or male prairie voles, FPS ZM1 1 mg/kg IP 30 min before IP d5 OXT, control vs antagonist pre-treated, ps > 0.21): No significant differences | Effect of antagonist pre-treatment on brain d5 OXT levels after IN d5 OXT (in words) ([2]; male prairie voles, FPS ZM1 1 mg/kg IP 30 min before IN d5 OXT, vs vehicle pre-treated controls, p = 0.02): significantly decreased

Oxytocin [OXT]
Water intake or drink size 3 h post-treatment (in words) ([3]; IN OXT 5 and 10 mg/kg, 3 h post-treatment): No effect | Alcohol or water consumptive visits or non-nutritive visits (in words) ([3]; IN OXT 5 and 10 mg/kg, females and males, any time point, p > 0.94): No significant differences | Alcohol intake at 2 h post-treatment (in words) ([3]; both doses of IN OXT (5 and 10 mg/kg), 2 h post-treatment, Kruskal-Wallis p = 0.02): decreased alcohol intake | Effect on alcohol consumption in females (in words) ([3]; female prairie voles, IN OXT 5 and 10 mg/kg): without affecting alcohol consumption | Alcohol intake vs control counterparts (in words) ([3]; male prairie voles, 5 mg/kg and 10 mg/kg IN OXT, 3 h post-treatment, Mann-Whitney p = 0.01 and p = 0.02): lower alcohol intake | Alcohol drink size vs control counterparts (in words) ([3]; male prairie voles, 5 mg/kg and 10 mg/kg IN OXT, 3 h post-treatment, p = 0.01 and p = 0.02): smaller drink sizes | Water intake at 2 h post-treatment (in words) ([3]; male prairie voles, 10 mg/kg IN OXT, 2 h post-treatment, p = 0.04): increased water intake | Bioavailability (in words) [4]: low bioavailability | Metabolic stability (in words) [4]: metabolically unstable | Oral availability (in words) [4]: not orally available | Half-life ([4]; estimated): tens of minutes | Alcohol and water intake after IP OXT (in words) [5]: decreased alcohol and water intake

Cc1cc(C(=O)N2Cc3cnn(C)c3Nc3ccccc32)ccc1CNC(=O)N1CCN(Cc2cc(O)cc(O)c2)CC1 [WAY-267646]
Affinity for the AVPR1a (in words) [6]: moderate affinity

TC-OT-39
Affinity for the AVPR1a (in words) [6]: moderate affinity
